Results as given in ChEMBL document CHEMBL5316344, “Homologation of the Alkyl Side Chain of Antimitotic Phenyl 4-(2-Oxo-3-alkylimidazolidin-1-yl)benzenesulfonate Prodrugs Selectively Targeting CYP1A1-Expressing Breast Cancers Improves Their Stability in Rodent Liver Microsomes” (J Med Chem, 2023).
Active and inactive are the calls of the source. The rule behind the calls is not given here.

Experiments:
MCF7 [1] = assay: Antiproliferative activity against human MCF7 cells expressing CYP1A1 assessed as cell growth inhibition incubated for 48 hrs by sulforhodamine B assay; type: functional, cell-based; settings: MCF7, 48 h
HT-29 = assay: Antiproliferative activity against human HT-29 cells assessed as cell growth inhibition incubated for 48 hrs by sulforhodamine B assay; type: functional, cell-based; settings: HT-29, 48 h
M21 = assay: Antiproliferative activity against human M21 cells assessed as cell growth inhibition incubated for 48 hrs by sulforhodamine B assay; type: functional, cell-based; settings: M21, 48 h
[2] = Selectivity ratio, ratio of IC50 for antiproliferative activity against human HT-29 cells to IC50 for antiproliferative activity against human MCF7 cells expressing CYP1A1; type: functional
[3] = Selectivity ratio, ratio of IC50 for antiproliferative activity against human M21 cells to IC50 for antiproliferative activity against human MCF7 cells expressing CYP1A1; type: functional
[4] = Stability in human liver microsomes assessed as half life incubated for 60 mins by HPLC analysis; type: ADME, Microsome
[5] = Stability in mouse liver microsomes assessed as half life incubated for 60 mins by HPLC analysis; type: ADME, Microsome
[6] = Stability in rat liver microsomes assessed as half life incubated for 60 mins by HPLC analysis; type: ADME, Microsome
[7] = Stability in human liver microsomes assessed as intrinsic clearance incubated for 60 mins by HPLC analysis; type: ADME, Microsome; settings: read-out: CLH
[8] = Stability in mouse liver microsomes assessed as intrinsic clearance incubated for 60 mins by HPLC analysis; type: ADME, Microsome; settings: read-out: CLH
[9] = Stability in rat liver microsomes assessed as intrinsic clearance incubated for 60 mins by HPLC analysis; type: ADME, Microsome; settings: read-out: CLH
Cytochrome P450 1A1 = molecular target: T1, Cytochrome P450 1A1 (Homo sapiens, UniProt P04798); assay: Binding affinity to human CYP1A1 assessed as inhibition of conversion of 7-ethoicyresorufin into fluorescent resorufin by measuring inhibition constant preincubated for 5 mins followed by […] addition measured every minute for 15 mins by EROD assay; type: ADME
T1 sequence (P04798 whole entry): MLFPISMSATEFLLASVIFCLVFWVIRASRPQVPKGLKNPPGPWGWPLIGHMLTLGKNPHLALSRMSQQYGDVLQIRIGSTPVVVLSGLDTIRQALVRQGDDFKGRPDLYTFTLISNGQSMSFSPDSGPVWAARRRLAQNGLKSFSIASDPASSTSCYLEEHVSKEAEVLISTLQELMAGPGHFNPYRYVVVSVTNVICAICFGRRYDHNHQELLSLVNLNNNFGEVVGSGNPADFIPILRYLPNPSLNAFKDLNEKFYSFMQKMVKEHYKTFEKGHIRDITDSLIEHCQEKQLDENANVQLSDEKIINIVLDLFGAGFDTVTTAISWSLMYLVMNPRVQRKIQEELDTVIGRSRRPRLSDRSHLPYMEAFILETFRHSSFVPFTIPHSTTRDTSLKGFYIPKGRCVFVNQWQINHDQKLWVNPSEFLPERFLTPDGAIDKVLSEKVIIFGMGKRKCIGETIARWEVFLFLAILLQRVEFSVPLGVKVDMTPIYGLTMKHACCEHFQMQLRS

HT-1080 [10] = assay: Antiproliferative activity against human HT-1080 cells expressing CYP1A1 assessed as cell growth inhibition incubated for 48 hrs by sulforhodamine B assay; type: functional, cell-based; settings: HT-1080, 48 h
HT-1080 [11] = assay: Antiproliferative activity against human HT-1080 cells transfected with empty vector assessed as cell growth inhibition incubated for 48 hrs by sulforhodamine B assay; type: functional, cell-based; settings: HT-1080, 48 h
HT-1080 [12] = assay: Antiproliferative activity against human HT-1080 cells assessed as cell growth inhibition incubated for 48 hrs by sulforhodamine B assay; type: functional, cell-based; settings: HT-1080, 48 h
[13] = Selectivity ratio, ratio of IC50 for antiproliferative activity against human HT-1080 cells transfected with empty vector to IC50 for antiproliferative activity against human HT-1080 cells expressing CYP1A1; type: functional
[14] = Selectivity ratio, ratio of IC50 for antiproliferative activity against human HT-1080 cells to IC50 for antiproliferative activity against human HT-1080 cells expressing CYP1A1; type: functional
MCF7 [15] = assay: Induction of cell cycle arrest in human MCF7 cells expressing CYP1A1 assessed as accumulation of cells at G2/M phase at 690 nM incubated for 48 hrs by DAPI staining based flow cytometric analysis (reference value: 16+/-2 %); type: functional
MCF7 [16] = assay: Induction of cell cycle arrest in human MCF7 cells expressing CYP1A1 assessed as accumulation of cells at S phase at 690 nM incubated for 48 hrs by DAPI staining based flow cytometric analysis (reference value: 11+/-1 %); type: functional
MCF7 [17] = assay: Induction of cell cycle arrest in human MCF7 cells expressing CYP1A1 assessed as accumulation of cells at G0/G1 phase at 690 nM incubated for 48 hrs by DAPI staining based flow cytometric analysis (reference value: 74+/-2 %); type: functional
Tubulin (Homo sapiens) [18] = molecular target: T2, Tubulin (Homo sapiens) (UniProt P68371+Q9H4B7+P0DPH7+P68366+Q13509+Q71U36+P04350+Q3ZCM7+P07437+P68363+Q9BQE3+Q6PEY2+Q13885+Q9BVA1+Q9BUF5); assay: Disruption of microtubules in human MCF7 cells expressing CYP1A1 assessed as cytoskeleton disruption at 970 nM measured after 48 hrs by DAPI staining based fluorescence microscopic analysis; type: cell-based
MCF7 [19] = assay: Induction of cell cycle arrest in human MCF7 cells expressing CYP1A1 assessed as accumulation of cells at G2/M phase at 1100 nM incubated for 48 hrs by DAPI staining based flow cytometric analysis (reference value: 16+/-2 %); type: functional
MCF7 [20] = assay: Induction of cell cycle arrest in human MCF7 cells expressing CYP1A1 assessed as accumulation of cells at S phase at 1100 nM incubated for 48 hrs by DAPI staining based flow cytometric analysis (reference value: 11+/-1 %); type: functional
MCF7 [21] = assay: Induction of cell cycle arrest in human MCF7 cells expressing CYP1A1 assessed as accumulation of cells at G0/G1 phase at 1100 nM incubated for 48 hrs by DAPI staining based flow cytometric analysis (reference value: 74+/-2 %); type: functional
Tubulin (Homo sapiens) [22] = molecular target: T2, Tubulin (Homo sapiens); assay: Disruption of microtubules in human MCF7 cells expressing CYP1A1 assessed as cytoskeleton disruption at 1305 nM measured after 48 hrs by DAPI staining based fluorescence microscopic analysis; type: cell-based
MCF7 [23] = assay: Induction of cell cycle arrest in human MCF7 cells expressing CYP1A1 assessed as accumulation of cells at G2/M phase at 145 nM incubated for 48 hrs by DAPI staining based flow cytometric analysis (reference value: 16+/-2 %); type: functional
MCF7 [24] = assay: Induction of cell cycle arrest in human MCF7 cells expressing CYP1A1 assessed as accumulation of cells at S phase at 145 nM incubated for 48 hrs by DAPI staining based flow cytometric analysis (reference value: 11+/-1 %); type: functional
MCF7 [25] = assay: Induction of cell cycle arrest in human MCF7 cells expressing CYP1A1 assessed as accumulation of cells at G0/G1 phase at 145 nM incubated for 48 hrs by DAPI staining based flow cytometric analysis (reference value: 74+/-2 %); type: functional
Tubulin (Homo sapiens) [26] = molecular target: T2, Tubulin (Homo sapiens); assay: Disruption of microtubules in human MCF7 cells expressing CYP1A1 assessed as cytoskeleton disruption at 65 nM measured after 48 hrs by DAPI staining based fluorescence microscopic analysis; type: cell-based
MCF7 [27] = assay: Induction of cell cycle arrest in human MCF7 cells expressing CYP1A1 assessed as accumulation of cells at G2/M phase at 30 nM incubated for 48 hrs by DAPI staining based flow cytometric analysis (reference value: 16+/-2 %); type: functional
MCF7 [28] = assay: Induction of cell cycle arrest in human MCF7 cells expressing CYP1A1 assessed as accumulation of cells at S phase at 30 nM incubated for 48 hrs by DAPI staining based flow cytometric analysis (reference value: 11+/-1 %); type: functional
MCF7 [29] = assay: Induction of cell cycle arrest in human MCF7 cells expressing CYP1A1 assessed as accumulation of cells at G0/G1 phase at 30 nM incubated for 48 hrs by DAPI staining based flow cytometric analysis (reference value: 74+/-2 %); type: functional
HT-1080 [30] = assay: Antitumor activity against human HT-1080 cells xenografted in chick embryo assessed as reduction in tumor wet weight at 1 ug, iv incubated for 17 days by CAM assay; type: functional; parameters: scale not given: the % may be the effect or the level left; settings: dose 1 µg, time 17 day
HT-1080 [31] = assay: Antitumor activity against human HT-1080 cells transfected with empty vector xenografted in chick embryo assessed as reduction in tumor wet weight at 1 ug, iv incubated for 17 days by CAM assay; type: functional; parameters: scale not given: the % may be the effect or the level left; settings: dose 1 µg, time 17 day
HT-1080 [32] = assay: Antitumor activity against human HT-1080 cells expressing CYP1A1 xenografted in chick embryo assessed as reduction in tumor wet weight at 1 ug, iv incubated for 17 days by CAM assay; type: functional; parameters: scale not given: the % may be the effect or the level left; settings: dose 1 µg, time 17 day
[33] = Toxicity in chick embryo xenografted with human […] cells assessed as mortality at 1 ug, iv incubated for 17 days; type: organism-based, Gallus gallus; settings: chicken, in vivo, 408 h, dose 1 µg, time 17 day
[34] = Toxicity in chick embryo xenografted with human […] cells transfected with empty vector assessed as mortality at 1 ug, iv incubated for 17 days; type: organism-based, Gallus gallus; settings: chicken, in vivo, 408 h, dose 1 µg, time 17 day
[35] = Toxicity in chick embryo xenografted with human […] cells expressing CYP1A1 assessed as mortality at 1 ug, iv incubated for 17 days; type: organism-based, Gallus gallus; settings: chicken, in vivo, 408 h, dose 1 µg, time 17 day

Row | Structure (SMILES) | IC50 (MCF7 [1]) [µM] | IC50 (HT-29) [µM] | IC50 (M21) [µM] | Ratio IC50 [2] | Ratio IC50 [3] | half-life [4] [h] | half-life [5] [h] | half-life [6] [h] | microsomal CLint [7] [µL/min/mg] | microsomal CLint [8] [µL/min/mg] | microsomal CLint [9] [µL/min/mg] | Ki (Cytochrome P450 1A1) [µM] | IC50 (HT-1080 [10]) [µM] | IC50 (HT-1080 [11]) [µM] | IC50 (HT-1080 [12]) [µM] | Ratio IC50 [13] | Ratio IC50 [14] | other results
1 | CCCCCN1CCN(c2ccc(S(=O)(=O)Oc3cccc(I)c3)cc2)C1=O | 0.14 | > 12.5 | > 12.5 | >90 | >90 | 1.28 | 1.55 | 1.03 | 19 | 15 | 24 | 0.19 | 0.03 | > 12.5 | 4.11 | >417 | 137 | Activity (MCF7 [15]): 45%; Activity (MCF7 [16]): 18%; Activity (MCF7 [17]): 37%; Activity (Tubulin (Homo sapiens) [18]): Active
2 | CCCCCN1CCN(c2ccc(S(=O)(=O)Oc3cccc(Cl)c3)cc2)C1=O | 0.4 | > 12.5 | > 12.5 | >31 | >31 | 4.83 | 2.17 | 1.83 | 5 | 11 | 12 | 0.6 | 0.09 | > 12.5 | 6.85 | >139 | 76 | Activity (MCF7 [19]): 42%; Activity (MCF7 [20]): 13%; Activity (MCF7 [21]): 45%; Activity (Tubulin (Homo sapiens) [22]): Active
3 | CCCCCN1CCN(c2ccc(S(=O)(=O)Oc3cc(Cl)cc(Cl)c3)cc2)C1=O | 0.05 | > 5 | > 5 | >100 | >100 | 2 | 1.85 | 2.67 | 12 | 12.5 | 9 | 1.2 | 0.03 | > 5 | 4.57 | >167 | 152 | Activity (MCF7 [23]): 34%; Activity (MCF7 [24]): 17%; Activity (MCF7 [25]): 49%; Activity (Tubulin (Homo sapiens) [26]): Active
4 | CCCCN1CCN(c2ccc(S(=O)(=O)Oc3cc(OC)c(OC)c(OC)c3)cc2)C1=O | 0.029 | > 5 | 2.4 | >172 | 83 | 1.53 | 0.3 | 0.302 | 15 | 77 | 77 | 0.14 | 0.006 | 0.82 | 1.2 | 137 | 200 | Activity (MCF7 [27]): 51%; Activity (MCF7 [28]): 11%; Activity (MCF7 [29]): 38%; Activity (HT-1080 [30]): 85%; Activity (HT-1080 [31]): 108%; Activity (HT-1080 [32]): 51%; Activity [33]: Non-Toxic; Activity [34]: Non-Toxic; Activity [35]: Non-Toxic
